Measured values taken from ChEMBL document CHEMBL4229423 (Bioorg Med Chem, 2018).

How the values were obtained:
Platelet [1] = test: Antiplatelet activity in rabbit platelet rich plasma assessed as inhibition of ADP-induced platelet aggregation at 0.1 mM preincubated for 5 mins followed by ADP addition measured up to 5 mins; type: functional; settings: Oryctolagus cuniculus
Platelet [2] = test: Antiplatelet activity in rabbit platelet rich plasma assessed as inhibition of ADP-induced platelet aggregation at 0.1 mM preincubated for 5 mins followed by ADP addition measured up to 5 mins in presence of NO scavenger carboxy-PTIO; type: functional; settings: Oryctolagus cuniculus
Mus musculus [3] = test: Antidiabetic activity in ICR mouse assessed as increase in urinary glucose excretion by measuring urine glucose levels at 20 mg/kg, po administered 30 mins prior to glucose challenge measured after 30 mins; type: functional
Mus musculus [4] = test: Antidiabetic activity in ICR mouse assessed as increase in urinary glucose excretion by measuring urine glucose levels at 20 mg/kg, po administered 30 mins prior to glucose challenge measured after 120 mins; type: functional
Mus musculus [5] = test: Antihyperglycemic activity in fasting ICR mouse assessed as decrease in plasma glucose AUC (0 to 120 mins) at 20 mg/kg, po administered 30 mins prior to glucose challenge measured after 120 mins by OGTT relative to control; type: functional; design: scale not given: the % may be the effect or the level left
Mus musculus [6] = test: Antidiabetic activity in ICR mouse assessed as increase in urinary glucose excretion by measuring urine glucose levels at 20 mg/kg, po administered 30 mins prior to glucose challenge measured after 15 mins; type: functional
Mus musculus [7] = test: Antidiabetic activity in ICR mouse assessed as increase in urinary glucose excretion by measuring urine glucose levels at 20 mg/kg, po administered 30 mins prior to glucose challenge measured after 60 mins; type: functional
[8] = target: T1, Sodium/glucose cotransporter 2 (Homo sapiens, UniProt P31639); test: Inhibition of SGLT2 (unknown origin)
T1 sequence (P31639 whole entry): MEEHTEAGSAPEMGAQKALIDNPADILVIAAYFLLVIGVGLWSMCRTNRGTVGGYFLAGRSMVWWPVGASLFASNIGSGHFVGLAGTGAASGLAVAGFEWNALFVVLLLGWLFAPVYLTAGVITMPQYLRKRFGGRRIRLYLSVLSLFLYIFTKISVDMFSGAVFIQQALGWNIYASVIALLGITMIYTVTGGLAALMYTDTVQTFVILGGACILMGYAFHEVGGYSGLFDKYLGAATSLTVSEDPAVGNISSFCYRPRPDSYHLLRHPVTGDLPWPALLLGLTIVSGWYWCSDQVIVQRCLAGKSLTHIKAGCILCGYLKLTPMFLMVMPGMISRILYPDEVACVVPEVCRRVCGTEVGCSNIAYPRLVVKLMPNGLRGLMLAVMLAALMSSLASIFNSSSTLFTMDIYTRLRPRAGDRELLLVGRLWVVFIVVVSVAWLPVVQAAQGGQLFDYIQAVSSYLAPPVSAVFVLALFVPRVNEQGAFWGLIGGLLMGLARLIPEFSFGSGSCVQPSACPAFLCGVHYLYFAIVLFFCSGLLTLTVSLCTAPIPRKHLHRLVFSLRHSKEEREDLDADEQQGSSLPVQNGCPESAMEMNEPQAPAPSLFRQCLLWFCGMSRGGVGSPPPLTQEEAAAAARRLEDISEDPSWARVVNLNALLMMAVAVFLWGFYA

Compound | IC50 [8] | inhibition at 100 µM (Platelet [1]) | further results
O=[N+]([O-])OCCOc1ccc(Cc2cc([C@@H]3O[C@H](CO)[C@@H](O)[C@H](O)[C@H]3O)ccc2Cl)cc1 | – | 11.6% | –
O=[N+]([O-])OCCCOc1ccc(Cc2cc([C@@H]3O[C@H](CO)[C@@H](O)[C@H](O)[C@H]3O)ccc2Cl)cc1 | – | 14.4% | inhibition at 100 µM (Platelet [2]): 3.64%; Activity (Mus musculus [3]): 2000 mg/dL; Activity (Mus musculus [4]): 500 mg/dL; Activity (Mus musculus [5]): 26.3%; Activity (Mus musculus [6]): 500 mg/dL; Activity (Mus musculus [7]): 1000 mg/dL
O=[N+]([O-])OCCCCOc1ccc(Cc2cc([C@@H]3O[C@H](CO)[C@@H](O)[C@H](O)[C@H]3O)ccc2Cl)cc1 | – | 14.1% | –

Second part, led by results:

IC50 [8] | Compound | inhibition at 100 µM (Platelet [1]) | further results
8.4 nM | OC[C@H]1O[C@@H](c2ccc(F)c(Cc3cc4ccccc4s3)c2)[C@H](O)[C@@H](O)[C@@H]1O [IPRAGLIFLOZIN] | – | –
2.3 nM | CCOc1ccc(Cc2cc([C@@H]3S[C@H](CO)[C@@H](O)[C@H](O)[C@H]3O)c(OC)cc2C)cc1 [LUSEOGLIFLOZIN] | – | –
4 nM | CCc1ccc(Cc2ccc3c(c2)[C@]2(OC3)O[C@H](CO)[C@@H](O)[C@H](O)[C@H]2O)cc1 [TOFOGLIFLOZIN ANHYDROUS] | – | –
